This experiment is described as follows: Inhibition of platelet aggregation using human platelet rich plasma (hPRP) assay (200microL, 2-3 x 10e 8 platelets/mL, n=1).
As for `CC(C)[C@H]1NC(=O)c2cccc(c2F)CNC(=O)[C@H](CC(=O)O)NC(=O)CNC(=O)[C@H](CCCN=C(N)N)N(C)C1=O` [[(5S,11S,14S)-21-Fluoro-11-(3-guanidino-propyl)-14-isopropyl-12-methyl-4,7,10,13,16-pentaoxo-3,6,9,12,15-pentaaza-bicyclo[15.3.1]henicosa-1(20),17(21),18-trien-5-yl]-acetic acid], the IC50 (commonly the point on the concentration scale where inhibition reaches its midpoint) turned out to be 20 nM.

The molecule `CC(C)[C@H]1NC(=O)C2=CC=C(CNC(=O)[C@H](CC(=O)O)NC(=O)CNC(=O)[C@H](CCCN=C(N)N)N(C)C1=O)S2` [[(5S,11S,14S)-11-(3-Guanidino-propyl)-14-isopropyl-12-methyl-4,7,10,13,16-pentaoxo-20-thia-3,6,9,12,15-pentaaza-bicyclo[15.2.1]icosa-1(19),17-dien-5-yl]-acetic acid] gave an IC50 of 100 nM.

`CC(C)[C@H]1NC(=O)/C=C\CCNC(=O)[C@H](CC(=O)O)NC(=O)CNC(=O)[C@H](CCCNC(=N)N)N(C)C1=O` [[(Z)-(3R,9R,12R)-9-(3-Guanidino-propyl)-12-isopropyl-10-methyl-2,5,8,11,14-pentaoxo-1,4,7,10,13pentaaza-cyclooctadec-15-en-3-yl]-acetic acid] came in with a half-maximal inhibitory concentration (IC50) of 200 nM.

On to `CC(C)[C@H]1NC(=O)c2cccc(c2)CNC(=O)[C@H](CC(=O)O)NC(=O)CNC(=O)[C@H](CCCNC(=N)N)N(C)C1=O` [DMP-757], for which the half-inhibitory concentration (IC50) was 20 nM.

In the case of `CC(C)[C@H]1NC(=O)c2cccc(n2)CNC(=O)[C@H](CC(=O)O)NC(=O)CNC(=O)[C@H](CCCN=C(N)N)N(C)C1=O` [[(5S,11S,14S)-11-(3-Guanidino-propyl)-14-isopropyl-12-methyl-4,7,10,13,16-pentaoxo-3,6,9,12,15,21-hexaaza-bicyclo[15.3.1]henicosa-1(21),17,19-trien-5-yl]-acetic acid], the IC50 was 2000 nM.

The molecule `CC(C)[C@H]1NC(=O)c2ccc([nH]2)CNC(=O)[C@H](CC(=O)O)NC(=O)CNC(=O)[C@H](CCCNC(=N)N)N(C)C1=O` [[(5S,11S,14S)-11-(3-Guanidino-propyl)-14-isopropyl-12-methyl-4,7,10,13,16-pentaoxo-3,6,9,12,15,20-hexaaza-bicyclo[15.2.1]icosa-1(19),17-dien-5-yl]-acetic acid] came in with an IC50 of 100 nM.

As for `CC(C)[C@H]1NC(=O)Cc2csc(n2)NC(=O)[C@H](CC(=O)O)NC(=O)CNC(=O)[C@H](CCCN=C(N)N)N(C)C1=O` [[(4S,10S,13S)-10-(3-Guanidino-propyl)-13-isopropyl-11-methyl-3,6,9,12,15-pentaoxo-19-thia-2,5,8,11,14,20-hexaaza-bicyclo[15.2.1]icosa-1(20),17-dien-4-yl]-acetic acid], it took 400 nM to reach half-maximal inhibition (IC50).

Molecule `CC(C)[C@H]1NC(=O)C2=CC=C(CNC(=O)[C@H](CC(=O)O)NC(=O)CNC(=O)[C@H](CCCNC(=N)N)N(C)C1=O)O2` [[(5S,11S,14S)-11-(3-Guanidino-propyl)-14-isopropyl-12-methyl-4,7,10,13,16-pentaoxo-20-oxa-3,6,9,12,15-pentaaza-bicyclo[15.2.1]icosa-1(19),17-dien-5-yl]-acetic acid] came in with an IC50 of 50 nM.

With `CC(C)[C@H]1NC(=O)C/C=C\CNC(=O)[C@H](CC(=O)O)NC(=O)CNC(=O)[C@H](CCCN=C(N)N)N(C)C1=O` [[(Z)-(3R,9R,12R)-9-(3-Guanidino-propyl)-12-isopropyl-10-methyl-2,5,8,11,14-pentaoxo-1,4,7,10,13pentaaza-cyclooctadec-16-en-3-yl]-acetic acid], the IC50 turned out to be 200 nM.

Values taken from BindingDB's records for doi:10.1016/0960-894X(95)00351-S (1995).
